Where two headings read alike, the source gives them in different places.
Assays:
EPHA5 = target: T1, EPHA5 (Homo sapiens, UniProt P54756); test: KINOMEScan; format: binding; set-up: dose or concentration left out as unconfirmed
T1 construct: purchased DiscoverX KINOMEscan

QSK = target: T2, QSK (Homo sapiens, UniProt Q9Y2K2); test: KINOMEScan; format: binding; set-up: dose or concentration left out as unconfirmed
T2 construct: purchased DiscoverX KINOMEscan

BaF3-tel-KIT-D816V = test: Anti-proliferation assay, transformed BaF3 cells; format: cell-based; details: Mus musculus, 72 hours, CellTiter-Glo
From the text: (§1) Retroviral constructs for BaF3-KIT mutants were made based on the pMSCVpuro (Clontech) backbone. For TEL-KIT vector, the first 1 kb of human TEL gene with an artificial myristoylation sequence ([…]) was cloned into the pMSCVpuro retroviral vector, followed by a 3xFLAG tag sequence. Then, the kinase domain coding sequence of KIT was inserted in-frame between TEL and 3xFLAG sequences. For full-length expression vectors, the coding sequences of KIT variants were directly cloned in pMSCVpuro vector with a 3xFLAG tag at the C-terminal end. All mutagenesis was performed using the QuikChange Site-Directed Mutagenesis Kit (Stratagene) following the manufacturer’s instructions. Retrovirus was packaged in HEK293T cells by transfecting KIT-containing MSCV vectors together with two helper plasmids. Virus supernatants were harvested 48 h after transfection and filtered before infection. Then BaF3 cells were infected with harvested virus supernatants using spinoculation protocol, and stable cell lines were obtained by puromycin selection for 48 h. The IL-3 concentrations in the culture medium were gradually withdrawn until cells were able to grow in the absence of IL-3.
(§2) Cells were grown in 96-well culture plates (2500/well). The compounds of various concentrations were added into the plates. Cell proliferation was determined after treatment with compounds for 72 hours. Cell viability was measured using the CellTiter–Glo assay (Promega, USA), according to the manufacturer’s instructions, and luminescence was measured in a multi-label reader (Envision, PerkinElmer, USA). Data were normalized to control groups (DMSO) and represented by the mean of three independent measurements with standard error <20%. GI50 values were calculated using Prism 5.0 (GraphPad Software, San Diego, CA).

BaF3-tel-KIT-A829P = test: Anti-proliferation assay, transformed BaF3 cells; format: cell-based; details: Mus musculus, 72 hours, CellTiter-Glo
From the text: as §1, §2

BaF3-tel-KIT-V559D = test: Anti-proliferation assay, transformed BaF3 cells; format: cell-based; details: Mus musculus, 72 hours, CellTiter-Glo
From the text: as §1, §2

BaF3-tel-KIT-T670I-V559D = test: Anti-proliferation assay, transformed BaF3 cells; format: cell-based; details: Mus musculus, 72 hours, CellTiter-Glo
From the text: as §1, §2

BaF3-tel-KIT-V559D-V654A = test: Anti-proliferation assay, transformed BaF3 cells; format: cell-based; details: Mus musculus, 72 hours, CellTiter-Glo
From the text: as §1, §2

BaF3-tel-KIT-T670I = test: Anti-proliferation assay, transformed BaF3 cells; format: cell-based; details: Mus musculus, 72 hours, CellTiter-Glo
From the text: as §1, §2

BaF3-tel-KIT = test: Anti-proliferation assay, transformed BaF3 cells; format: cell-based; details: Mus musculus, 72 hours, CellTiter-Glo
From the text: as §1, §2

BaF3-tel-KIT-N822K = test: Anti-proliferation assay, transformed BaF3 cells; format: cell-based; details: Mus musculus, 72 hours, CellTiter-Glo
From the text: as §1, §2

BaF3-tel-KIT-V654A = test: Anti-proliferation assay, transformed BaF3 cells; format: cell-based; details: Mus musculus, 72 hours, CellTiter-Glo
From the text: as §1, §2

BaF3-tel-KIT-L576P = test: Anti-proliferation assay, transformed BaF3 cells; format: cell-based; details: Mus musculus, 72 hours, CellTiter-Glo
From the text: as §1, §2

CSNK1G3 = target: T3, CSNK1G3 (Homo sapiens, UniProt Q9Y6M4); test: KINOMEScan; format: binding; set-up: dose or concentration left out as unconfirmed
T3 construct: purchased DiscoverX KINOMEscan

KIT N822K = KIT N822K (Homo sapiens, UniProt P10721, N822K); test: KIT auto-phosphorylation in transformed BaF3 cells
Chain of KIT N822K (P10721 26-976 N822K): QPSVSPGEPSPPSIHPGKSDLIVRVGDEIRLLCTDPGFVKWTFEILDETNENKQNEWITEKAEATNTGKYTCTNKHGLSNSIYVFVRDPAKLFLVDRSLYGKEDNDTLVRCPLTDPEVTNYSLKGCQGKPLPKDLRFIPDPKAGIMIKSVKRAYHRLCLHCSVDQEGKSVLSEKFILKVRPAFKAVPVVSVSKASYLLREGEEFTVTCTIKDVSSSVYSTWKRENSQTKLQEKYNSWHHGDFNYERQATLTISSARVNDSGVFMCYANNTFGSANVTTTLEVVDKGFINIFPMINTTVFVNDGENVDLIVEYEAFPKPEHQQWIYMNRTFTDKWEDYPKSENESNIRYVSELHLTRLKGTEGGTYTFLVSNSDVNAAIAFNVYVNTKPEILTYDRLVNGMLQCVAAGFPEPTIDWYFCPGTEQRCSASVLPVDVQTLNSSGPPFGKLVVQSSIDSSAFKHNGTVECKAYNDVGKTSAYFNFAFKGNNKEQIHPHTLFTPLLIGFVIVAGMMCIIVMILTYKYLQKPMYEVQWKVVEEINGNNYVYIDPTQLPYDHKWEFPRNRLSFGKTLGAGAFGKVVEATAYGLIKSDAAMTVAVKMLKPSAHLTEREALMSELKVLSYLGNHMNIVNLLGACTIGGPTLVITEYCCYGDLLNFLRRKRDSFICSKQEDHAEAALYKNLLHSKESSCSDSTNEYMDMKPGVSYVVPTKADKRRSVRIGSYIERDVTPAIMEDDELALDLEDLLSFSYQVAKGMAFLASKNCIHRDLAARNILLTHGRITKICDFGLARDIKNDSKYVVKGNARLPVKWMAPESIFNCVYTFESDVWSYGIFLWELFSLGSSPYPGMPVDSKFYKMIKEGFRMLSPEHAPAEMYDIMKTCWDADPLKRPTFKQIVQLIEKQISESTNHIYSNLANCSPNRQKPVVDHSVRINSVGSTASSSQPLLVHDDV

KIT wt [1] = target: T4, KIT wt (Homo sapiens, UniProt P10721); test: KIT auto-phosphorylation in transformed BaF3 cells; format: cell-based; details: 2h
Target sequence in this assay (P10721 546-937 limits assumed): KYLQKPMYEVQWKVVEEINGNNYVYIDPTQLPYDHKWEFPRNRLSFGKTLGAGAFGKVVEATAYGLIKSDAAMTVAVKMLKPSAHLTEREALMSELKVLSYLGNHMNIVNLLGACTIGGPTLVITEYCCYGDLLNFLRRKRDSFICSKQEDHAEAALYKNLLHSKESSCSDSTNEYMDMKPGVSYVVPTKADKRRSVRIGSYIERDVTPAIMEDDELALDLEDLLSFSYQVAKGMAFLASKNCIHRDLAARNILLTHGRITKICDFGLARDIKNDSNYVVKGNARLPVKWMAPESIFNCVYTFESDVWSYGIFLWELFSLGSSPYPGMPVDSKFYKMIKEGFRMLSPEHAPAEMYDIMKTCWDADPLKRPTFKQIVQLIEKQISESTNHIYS

FLT3(ITD) = test: KINOMEScan; format: binding; set-up: dose or concentration left out as unconfirmed
KIT wt [2] = target: T4, KIT wt; test: Kd determination by MST; format: binding; set-up: wt KIT residues 544-935 with a His tag; His tag; made in house; host or cells: SF9 insect cells (baculovirus); details: purified protein
CAMK1B = target: T5, CAMK1B (Homo sapiens, UniProt Q6P2M8); test: KINOMEScan; format: binding; set-up: dose or concentration left out as unconfirmed
T5 construct: purchased DiscoverX KINOMEscan

EGFR(T790M) = target: T6, EGFR(T790M) (Homo sapiens, UniProt P00533, T790M); test: KINOMEScan; format: binding
T6 construct: purchased DiscoverX KINOMEscan

KIT L576p = KIT L576p (Homo sapiens, UniProt P10721, L576P); test: KIT auto-phosphorylation in transformed BaF3 cells; details: 2h
Chain of KIT L576p (P10721 26-976 L576P): as the sequence (P10721 26-976 N822K) above, with L551P, K797N counted along it

LZK = target: T7, LZK (Homo sapiens, UniProt O43283); test: KINOMEScan; format: binding; set-up: dose or concentration left out as unconfirmed
T7 construct: purchased DiscoverX KINOMEscan
T7 sequence (O43283 whole entry): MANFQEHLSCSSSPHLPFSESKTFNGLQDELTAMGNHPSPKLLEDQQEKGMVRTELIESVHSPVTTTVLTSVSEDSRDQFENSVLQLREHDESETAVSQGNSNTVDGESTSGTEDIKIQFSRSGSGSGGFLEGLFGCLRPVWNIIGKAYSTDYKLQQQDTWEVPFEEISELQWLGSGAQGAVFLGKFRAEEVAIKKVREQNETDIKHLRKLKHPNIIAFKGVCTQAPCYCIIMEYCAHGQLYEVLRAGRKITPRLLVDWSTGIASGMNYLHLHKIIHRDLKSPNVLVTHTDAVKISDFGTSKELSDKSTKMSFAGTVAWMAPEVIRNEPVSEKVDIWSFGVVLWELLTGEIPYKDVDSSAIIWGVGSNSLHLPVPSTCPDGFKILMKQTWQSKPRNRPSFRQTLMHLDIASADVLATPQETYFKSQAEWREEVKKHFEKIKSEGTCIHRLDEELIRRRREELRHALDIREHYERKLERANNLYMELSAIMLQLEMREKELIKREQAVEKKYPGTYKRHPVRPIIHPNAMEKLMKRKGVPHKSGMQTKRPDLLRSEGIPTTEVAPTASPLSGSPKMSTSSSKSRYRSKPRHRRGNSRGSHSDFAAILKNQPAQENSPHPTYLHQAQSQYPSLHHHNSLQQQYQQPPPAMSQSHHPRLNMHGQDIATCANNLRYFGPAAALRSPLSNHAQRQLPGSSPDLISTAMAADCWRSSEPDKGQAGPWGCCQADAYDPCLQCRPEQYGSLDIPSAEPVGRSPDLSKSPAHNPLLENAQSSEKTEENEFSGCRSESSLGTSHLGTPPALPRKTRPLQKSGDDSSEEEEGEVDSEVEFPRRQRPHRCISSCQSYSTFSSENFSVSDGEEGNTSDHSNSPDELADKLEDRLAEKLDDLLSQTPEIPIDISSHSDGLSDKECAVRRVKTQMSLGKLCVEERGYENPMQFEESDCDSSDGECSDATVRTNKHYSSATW

WNK1 = target: T8, WNK1 (Homo sapiens, UniProt Q9H4A3); test: KINOMEScan; format: binding; set-up: dose or concentration left out as unconfirmed
T8 construct: purchased DiscoverX KINOMEscan

ITK = target: T9, ITK (Homo sapiens, UniProt Q08881); test: KINOMEScan; format: binding; set-up: dose or concentration left out as unconfirmed
T9 construct: purchased DiscoverX KINOMEscan

MET = target: T10, MET (Homo sapiens, UniProt P08581); test: KINOMEScan; format: binding; set-up: dose or concentration left out as unconfirmed
T10 construct: purchased DiscoverX KINOMEscan
T10 sequence (P08581 25-1390): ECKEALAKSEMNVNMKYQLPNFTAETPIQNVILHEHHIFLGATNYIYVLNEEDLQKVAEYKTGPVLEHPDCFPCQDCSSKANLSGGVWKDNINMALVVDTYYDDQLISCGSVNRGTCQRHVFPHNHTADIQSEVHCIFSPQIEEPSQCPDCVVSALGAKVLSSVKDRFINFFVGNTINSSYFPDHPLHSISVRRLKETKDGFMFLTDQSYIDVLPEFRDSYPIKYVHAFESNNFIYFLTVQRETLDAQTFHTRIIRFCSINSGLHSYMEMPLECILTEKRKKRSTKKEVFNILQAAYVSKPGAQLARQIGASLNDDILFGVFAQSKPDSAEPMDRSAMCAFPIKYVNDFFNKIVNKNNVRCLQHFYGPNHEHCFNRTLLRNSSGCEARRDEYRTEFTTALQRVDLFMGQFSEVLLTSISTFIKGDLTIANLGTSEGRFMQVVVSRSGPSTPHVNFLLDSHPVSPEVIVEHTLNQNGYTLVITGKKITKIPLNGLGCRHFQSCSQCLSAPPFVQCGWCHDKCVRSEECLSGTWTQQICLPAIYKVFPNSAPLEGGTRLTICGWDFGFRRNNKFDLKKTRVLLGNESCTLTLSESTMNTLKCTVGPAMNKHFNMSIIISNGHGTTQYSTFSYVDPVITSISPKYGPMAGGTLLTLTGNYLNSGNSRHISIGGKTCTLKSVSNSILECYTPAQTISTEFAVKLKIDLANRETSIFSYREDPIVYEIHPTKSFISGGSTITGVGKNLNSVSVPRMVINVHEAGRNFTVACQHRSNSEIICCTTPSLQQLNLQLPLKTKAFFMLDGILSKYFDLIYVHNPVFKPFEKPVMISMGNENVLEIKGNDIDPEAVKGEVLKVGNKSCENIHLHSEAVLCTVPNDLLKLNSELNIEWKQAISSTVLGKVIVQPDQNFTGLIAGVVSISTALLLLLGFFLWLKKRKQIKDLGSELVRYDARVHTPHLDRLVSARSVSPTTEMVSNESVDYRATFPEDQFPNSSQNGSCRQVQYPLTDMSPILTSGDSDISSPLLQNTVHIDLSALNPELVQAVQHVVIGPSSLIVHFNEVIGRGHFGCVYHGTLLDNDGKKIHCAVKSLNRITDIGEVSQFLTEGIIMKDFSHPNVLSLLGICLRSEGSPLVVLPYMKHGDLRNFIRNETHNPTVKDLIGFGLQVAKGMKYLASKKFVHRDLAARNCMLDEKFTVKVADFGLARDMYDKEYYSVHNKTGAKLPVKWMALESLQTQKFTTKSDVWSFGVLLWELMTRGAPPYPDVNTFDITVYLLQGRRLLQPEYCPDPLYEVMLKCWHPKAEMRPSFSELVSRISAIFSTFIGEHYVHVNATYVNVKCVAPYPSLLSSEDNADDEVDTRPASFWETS

CIT = target: T11, CIT (Homo sapiens, UniProt O14578); test: KINOMEScan; format: binding; set-up: dose or concentration left out as unconfirmed
T11 construct: purchased DiscoverX KINOMEscan

[3] = target: T12, RSK4(Kin.Dom.1-N-terminal) (Homo sapiens, UniProt Q9UK32); test: KINOMEScan; format: binding
T12 construct: RSK4(Kin.Dom.1-N-terminal); purchased DiscoverX KINOMEscan
T12 sequence (Q9UK32 73-400 limits assumed): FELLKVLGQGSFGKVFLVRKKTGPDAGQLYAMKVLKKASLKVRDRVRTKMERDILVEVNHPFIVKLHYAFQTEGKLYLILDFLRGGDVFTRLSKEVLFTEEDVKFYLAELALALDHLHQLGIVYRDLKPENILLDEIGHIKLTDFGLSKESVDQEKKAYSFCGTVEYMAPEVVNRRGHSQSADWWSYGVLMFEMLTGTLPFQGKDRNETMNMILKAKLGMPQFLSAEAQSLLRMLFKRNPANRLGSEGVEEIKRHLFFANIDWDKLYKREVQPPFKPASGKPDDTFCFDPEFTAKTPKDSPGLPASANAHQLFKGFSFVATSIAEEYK

CDC2L5 = target: T13, CDC2L5 (Homo sapiens, UniProt Q14004); test: KINOMEScan; format: binding; details: Concentrations 1 µM
T13 construct: purchased DiscoverX KINOMEscan
From the text: Then we used the DiscoverX’s KINOMEScan platform to further examine CHMFL-KIT-031’s kinome-wide selectivity profile. […] Besides the strong binding to V559D, it also bound strongly to KIT wt, L576P and A829P.

T1 sequence (P54756 25-1037): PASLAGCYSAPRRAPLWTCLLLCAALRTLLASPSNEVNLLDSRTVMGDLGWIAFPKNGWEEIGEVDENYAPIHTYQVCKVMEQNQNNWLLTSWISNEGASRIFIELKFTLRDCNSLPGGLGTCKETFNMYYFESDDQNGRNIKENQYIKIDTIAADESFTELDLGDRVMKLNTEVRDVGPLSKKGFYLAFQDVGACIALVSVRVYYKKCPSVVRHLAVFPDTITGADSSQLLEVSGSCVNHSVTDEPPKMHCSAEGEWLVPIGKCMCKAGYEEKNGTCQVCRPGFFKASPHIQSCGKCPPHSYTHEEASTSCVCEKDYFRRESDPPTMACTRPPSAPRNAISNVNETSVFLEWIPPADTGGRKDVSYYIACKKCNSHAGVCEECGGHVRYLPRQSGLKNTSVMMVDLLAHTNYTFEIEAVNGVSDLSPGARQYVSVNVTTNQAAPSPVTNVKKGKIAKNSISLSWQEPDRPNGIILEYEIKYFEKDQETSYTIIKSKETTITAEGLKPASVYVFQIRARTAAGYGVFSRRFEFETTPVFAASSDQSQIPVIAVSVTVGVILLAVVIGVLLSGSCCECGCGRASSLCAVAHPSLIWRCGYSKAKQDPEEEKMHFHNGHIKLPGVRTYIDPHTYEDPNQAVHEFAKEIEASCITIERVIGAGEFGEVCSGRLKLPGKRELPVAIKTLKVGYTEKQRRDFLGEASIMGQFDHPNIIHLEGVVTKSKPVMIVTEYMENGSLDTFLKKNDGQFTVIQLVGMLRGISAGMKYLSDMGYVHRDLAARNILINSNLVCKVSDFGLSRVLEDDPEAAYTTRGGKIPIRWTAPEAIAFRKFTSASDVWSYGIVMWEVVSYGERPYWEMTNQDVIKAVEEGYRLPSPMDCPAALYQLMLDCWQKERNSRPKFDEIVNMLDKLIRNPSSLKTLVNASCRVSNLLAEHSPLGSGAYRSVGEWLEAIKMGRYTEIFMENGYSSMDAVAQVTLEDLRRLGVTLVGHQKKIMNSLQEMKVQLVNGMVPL

COc1cc(C(=O)NCC(=O)Nc2ccc3c(/C=C/c4ccccn4)n[nH]c3c2)cc(OC)c1OC [CHMFL-KIT-031]
KINOMEScan profiling value (EPHA5): 100 | KINOMEScan profiling value (QSK): 82 | GI50 (BaF3-tel-KIT-D816V): > 10 µM | GI50 (BaF3-tel-KIT-A829P): 1.8 µM | GI50 (BaF3-tel-KIT-V559D): 0.025 µM | GI50 (BaF3-tel-KIT-T670I-V559D): > 10 µM | GI50 (BaF3-tel-KIT-V559D-V654A): 0.81 µM | GI50 (BaF3-tel-KIT-T670I): > 10 µM | GI50 (BaF3-tel-KIT): > 10 µM | GI50 (BaF3-tel-KIT-N822K): > 10 µM | GI50 (BaF3-tel-KIT-V654A): 0.4 µM | GI50 (BaF3-tel-KIT-L576P): 2.2 µM | KINOMEScan profiling value (CSNK1G3): 99 | EC50 (KIT N822K): > 10 µM | EC50 (KIT N822K; read-out: EC50 pY719 auto-phosphorylation, KIT N822K transformed BaF3 cells, 2h): > 10 µM | EC50 (KIT N822K; read-out: EC50 pY823 auto-phosphorylation, KIT N822K transformed BaF3 cells, 2h): > 10 µM | EC50 (KIT wt [1]; read-out: EC50 pY703 auto-phosphorylation): 1.9 µM | EC50 (KIT wt [1]; read-out: EC50 pY719 auto-phosphorylation): 8.2 µM | EC50 (KIT wt [1]; read-out: EC50 pY823 auto-phosphorylation): 6.9 µM | KINOMEScan profiling value (FLT3(ITD)): 44 | Kd (KIT wt [2]): 6.64 µM | KINOMEScan profiling value (CAMK1B): 83 | KINOMEScan profiling value (EGFR(T790M)): 100 | EC50 (KIT L576p; EC50 pY703 auto-phosphorylation): > 10 µM | EC50 (KIT L576p; EC50 pY719 auto-phosphorylation): 5.9 µM | EC50 (KIT L576p; EC50 pY823 auto-phosphorylation): 1.9 µM | KINOMEScan profiling value (LZK): 100 | KINOMEScan profiling value (WNK1): 19 | KINOMEScan profiling value (ITK): 96 | KINOMEScan profiling value (MET): 100 | KINOMEScan profiling value (CIT): 64 | KINOMEScan profiling value [3]: 97 | KINOMEScan profiling value (CDC2L5): 97

Reference: article PMC5762309 (Oncotarget, 2017)
